Laboratory results: US20040034216A1, “3-Nitrogen-6,7-dioxygen steroids and uses related thereto” (priority 2003, published 2004)
Structures can show the parent of a compound that is named as a salt. Where two headings read alike, the source gives them in different places.

Key:
Jurkat clone E6.1 cells = assay: Antigen-induced calcium flux in anti-CD3 stimulated Jurkat cells (Fura 2AM); assay type: cell-based; conditions: anti-CD3 mAb stimulated Jurkat clone E6.1 cells; for inhibition at 20 µM: Homo sapiens
Excerpt: Elevation of cytoplasmic calcium concentration is a common and crucial event which follows the activation of many types of cell surface receptors. Increases in intracellular calcium that occur following agonist activation of inositol lipid hydrolysis are the results of calcium release from the endoplasmic reticulum and the influx of calcium through the plasma membrane. Increases in cytosolic calcium concentration are involved in many important cellular responses in the inflammatory process including adhesion, motility, gene expression, proliferation, and degranulation. Changes in intracellular calcium concentrations can affect both short and long term cellular responses. An assay method to evaluate a test compound's impact on calcium flux is provided as follows.
The resulting supernatants are discarded and each pellet is washed in 10 mL HBSS. Cell suspensions are accumulated and centrifuged for 5 minutes at 900 RPM to form a cell pellet. The resulting supernatant is discarded and the pellet is resuspended in HBSS at 1×10^7cells/mL. The cell suspension is transferred to a 20 mm petri dish and incubated at 37° C., 5% CO2 for 20 minutes.
One volume of Fura 2AM is mixed to one volume of detergent Pluronic F127. Cells are labeled with 4 μL of probe solution to each mL of cell suspension. The petri dish is wrapped in aluminum foil to protect from light and placed on a plate shaker for 30 minutes at room temperature.
The following steps are done in the laminar flow hood with the fluorescent lights turned off. The petri dish is removed from the shaker and the labeled cell suspension is transferred to a 15 mL conical tube and washed twice with HBSS as above. The cell pellet is resuspended in 12 mL HBSS and left wrapped in foil for 30 minutes at room temperature. The labeled cell suspension is aliquoted (100 μL/well) into a Dynex 96 well white opaque tissue culture plate. […] Selected compounds were tested for dose related activity. Test samples and activator (anti-CD3 mAb at final concentration of 4 μg/mL, PharMingen) are added manually (50 μL), such that the minimum time to acquire the first data point after stimulation is approximately 30 seconds. The calcium influx response to anti-CD3 mAb is measured as an “end point” assay. The entire plate is read in 100 seconds using a kinetic of 1 second per well.
The plate is read before the addition of anti-CD3 to monitor non-specific effect of samples/drugs. Fluorescence emission is measured at 510 nm with excitation alternating between 340 and 380 every second using an excitation/emission filter pair. Data from these dual wavelengths are represented as a ratio of 2 excitations wavelengths. This ratio is independent of intracellular dye and cell concentrations, enabling real comparison between experiments.

[1] = tested on: sensitized Brown Norway rats; assay: Ovalbumin-induced accumulation of inflammatory cells in lung lavage fluid (allergen-induced lung inflammation); assay type: in vivo, rat; conditions: p.o., corn oil, lung lavage fluid; for % inhibition of eosinophils: 5 mg/kg/day for 4 days, relative to control animals
Experimental: The ability of a compound to inhibit the allergen-induced accumulation of inflammatory cells such as eosinophils and neutrophils in the lavage fluid obtained from sensitized animals is indicative of that compound's anti-asthma activity. […] The test is conducted as follows.
Male Brown Norway rats are sensitized to ovalbumin by single intraperitoneal injection of 1 mg ovalbumin adsorbed to 100 mg […] (alum) in 1 ml sterile saline (saline control rats receive only sterile saline) on day 1, and allowed to sensitize until day 21. […] Rats are challenged with 0.5% ovalbumin in saline generated using a Devillbis nebulizer for 60 min on day 21.
Forty-eight hrs after challenge, animals are sacrificed with an overdose of intraperitoneally-delivered sodium pentobarbitol and the lungs are lavaged with cold 2×7 ml phosphate buffered saline. The recovered lavage fluid is placed on ice. The bronchoalveolar lavage fluid is centrifuged and the supernatant removed. The pellet is resuspended in phosphate buffered saline at 4° C. Cytospins are prepared and stained for differentiation and enumeration of cell types.
Test compound was administered in 300 μl corn oil (Tables 7 and 8) or water (Table 9), which were used as vehicles. Control animals received 300 μl corn oil or water alone, i.e., no drug. […] A negative value in Table 7, 8, or 9 indicates an exacerbation of the effect over the control animal.

[2] = tested on: Rat Mast Cell Line (RBL-2H3); assay: Antigen-induced release of hexosaminidase from a rat mast cell line (RBL-2H3); assay type: cell-based; conditions: Rattus norvegicus, RBL-2H3, inhibition of antigen (DNP-HSA)-induced hexosaminidase release, tested at 0.3, 3, 10 and 30 μM, read-out: Hex IC50
Experimental: The anti-allergic effects of a compound of the present invention was evaluated by measuring its effect on antigen-induced secretion of hexosaminidase from a passively sensitized rat mast cell line. The ability of a test compound to inhibit the release of mast cell granule contents, e.g., histamine and hexosaminidase, is indicative of the anti-allergy and/or anti-asthma activity of the compound. Hexosaminidase is released from the mast cell granule along with histamine and other mediators during antigen challenge. The test is performed as follows.
RBL-2H3 cells are grown in culture and passively sensitized for 1 hour at 37° C. to dinitrophenol (DNP) using anti-human-DNP (IgE). Cells are incubated with test compound for 30 minutes at 37° C. and stimulated with 0.5 μg/ml DNP-HSA (antigen) for 30 minutes. Aliquots of the supernatant are removed and used to measure the amount of hexosaminidase released during challenge with the antigen. The amount of hexosaminidase present in the supernatant is determined colorimetrically by monitoring the enzymatic metabolism of p-nitrophenyl-N-acetyl-β-D-glucosaminide (p-NAG) over a period of 60 minutes at 405 nm. The effect of each test compound is determined as a percentage of the antigen-induced response (minus background release) obtained in the presence of DMSO alone. These values are used to determine the degrees of inhibition of antigen-induced hexosaminidase release from the cells.

[3] = Jurkat, read-out: Calcium (% inhibition at 20 μM), 20 μM

CCC1(C)CCC2=C1CCC1C2C(O)C(O)C2CC(Nc3ccccc3)CCC21C.Cl (mixture of isomers) [Compound 144]
Calcium (% inhibition at 20 μM) (Jurkat clone E6.1 cells; 20 μM): 13.0%

CCC1(C)CCC2=C1CCC1C2C(O)C(O)C2CC(Nc3cccc(C(F)(F)F)c3)CCC21C.Cl (mixture of isomers) [Compound 145]
Calcium (% inhibition at 20 μM) (Jurkat clone E6.1 cells; 20 μM): −0.2%

CC=C1CCC2C3C(CC[C@]12C)[C@@]1(C)CCC(N)CC1[C@@H](O)[C@@H]3O (stereo partly shown) [Compound 49]
% inhibition of eosinophils [1]: 52%

C=C1CCC2C3C(CC[C@]12C)[C@@]1(C)CCC(N)CC1[C@@H](O)[C@@H]3O (stereo partly shown) [Compound 53]
% inhibition of eosinophils [1]: 24%

C=C1CCC2C3C(CC[C@]12C)[C@@]1(C)CCC(N)CC1[C@@H](O)[C@@H]3O (stereo partly shown) [Compound 54]
IC50 [2]: 16.1 µM

CC(F)=C1CCC2C3C(CC[C@]12C)[C@@]1(C)CCC(N)CC1[C@@H](O)[C@@H]3O (stereo partly shown) [Compound 64]
IC50 [2]: 14.4 µM
% inhibition of eosinophils [1]: 62%
inhibition at 20 µM (Jurkat clone E6.1 cells; [3]): 6.7%

COC(=O)C=C1CCC2C3C(CC[C@]12C)[C@@]1(C)CCC(N)CC1[C@@H](O)[C@@H]3O (stereo partly shown) [Compound 69]
IC50 [2]: 21.2 µM
inhibition at 20 µM (Jurkat clone E6.1 cells; [3]): 11.2%

C[C@]12CC[C@@H](N)CC1[C@@H](O)[C@H](O)[C@@H]1[C@@H]2CC[C@]2(C)C(=O)CC[C@@H]12 (stereo partly drawn) [Compound 70, 3α-amino-6α,7β-dihydroxyandrostan-17-one acetic acid salt]
inhibition at 20 µM (Jurkat clone E6.1 cells; read-out: Calcium (% inhibition at 20 μM), 20 μM): 7%

C[C@]12CCC3C(C1CCC2O)[C@@H](O)[C@H](O)C1CC(N)CC[C@]31C (stereo partly shown) [Compound 72]
inhibition at 20 µM (Jurkat clone E6.1 cells; [3]): 10.3%

C=C1CCC2C3C(CC[C@]12C)[C@@]1(C)CCC(N)CC1[C@@H](OC)[C@@H]3OC (stereo partly shown) [Compound 78]
IC50 [2]: 20.1 µM
inhibition at 20 µM (Jurkat clone E6.1 cells; [3]): 5.3%

CC(F)=C1CCC2C3C(CC[C@]12C)[C@@]1(C)CCC(N)CC1[C@@H](O)[C@@H]3O (stereo partly shown) [Compound 95]
% inhibition of eosinophils [1]: 14%

CCC1CCC2C3C(CC[C@]12C)[C@@]1(C)CCC(N)CC1[C@@H](O)[C@@H]3O (stereo partly shown) [Compound 96]
IC50 [2]: 7.8 µM
% inhibition of eosinophils [1]: −9%
inhibition at 20 µM (Jurkat clone E6.1 cells; [3]): 47.9%

CCC1CCC2C3C(CC[C@]12C)[C@@]1(C)CCC(N)CC1[C@@H](O)[C@@H]3O (stereo partly shown) [Compound 97]
% inhibition of eosinophils [1]: 40%

C=C1CCC2C3C(CC[C@]12C)[C@@]1(C)CC[C@@H](NCc2ccc(C(C)C)cc2)CC1[C@@H](O)[C@@H]3O (stereo partly shown) [Compound 100]
IC50 [2]: 18.2 µM
inhibition at 20 µM (Jurkat clone E6.1 cells; [3]): 33.2%

C=C1CCC2C3C(O)C(O)C4CC(NCc5cccc(C(F)(F)F)c5)CCC4(C)C3CCC12C.CC(=O)O (stereo not shown) [Compound 102]
Calcium (% inhibition at 20 μM) (Jurkat clone E6.1 cells; 20 μM): 9.5%

C=C1CCC2C3C(O)C(O)C4CC(NCc5cccc([N+](=O)[O-])c5)CCC4(C)C3CCC12C (stereo not shown) [Compound 106]
Calcium (% inhibition at 20 μM) (Jurkat clone E6.1 cells; 20 μM): 8.1%

C=C1CCC2C3C(O)C(O)C4CC(NCc5cccnc5)CCC4(C)C3CCC12C.Cl.Cl (stereo not shown) [Compound 107]
% inhibition of lymphocytes ([1]; 1 mg/kg/day for 4 days): −28%
% inhibition of neutrophils ([1]; 1 mg/kg/day for 4 days): 23%
